Results from US20080025918A1, “Invisible light fluorescent platelets for intraoperative detection of vascular thrombosis” (Beth Israel Deaconess Medical Center, Inc., priority 2006, published 2008).

What was measured:
resting platelets = assay: P-selectin surface expression of resting loaded platelets; type: cell-based, human; settings: resting platelets loaded with 2 μM IR-786
[1] = Spectral characteristics and relative fluorescence yield of IR-786 (absorbance and fluorescence measurements); type: physicochemical; settings: for Relative Fluorescence Yield: samples matched for absorbance, 655 nm excitation
Method: Absorbance and fluorescence measurements were performed in 1 cm quartz cuvettes as described previously (Ohnishi et al., Mol. Imaging., 2005; 4(3):172-181). For measurement of relative fluorescence yield, IR-786 samples in Tyrodes-HEPES, methanol, or concentrated in washed platelets were matched for absorbance (0.1 A units) and area under the fluorescence emission curve calculated after excitation with a 5 mW 655 nm laser diode.

washed pig platelets = assay: Pig platelet aggregation (aggregometry); type: cell-based; settings: washed pig platelets incubated 30 minutes with 2 μM IR-786
Method: To ensure that platelets loaded with 2 μM IR-786 retained function, the ability of IR-786-loaded platelets to aggregate in response to agonists was assessed. Loaded and non-loaded human platelets, resuspended at a density of 4×10^8 cells/mL in modified Tyrodes-HEPES buffer, were stimulated with agonists in siliconized glass tubes in an optical aggregometer (Chronolog, Havertown, Pa.). Assays were performed at 37° C. and with constant stirring. Aggregation was monitored by measurement of optical density of the platelet suspension (Croce et al., J. Biol. Chem., 1999; 274(51):36321-36327)
The ability of pig platelets to aggregate following incubation with IR-786 was also tested, using aggregometry as described above.

[2] = following incorporation into platelets

CN1C(=CC=C2CCCC(C=CC3=[N+](C)c4ccccc4C3(C)C)=C2Cl)C(C)(C)c2ccccc21.[O-][Cl+3]([O-])([O-])[O-] [IR-786]
P-selectin surface expression (platelet activation) (resting platelets): no significant P-selectin surface expression | emission maximum [1, 2]: 804 nm | excitation maximum [1, 2]: 788 nm | Peak Absorbance ([1]; in Methanol): 775 nm | Peak Emission ([1]; in Methanol): 797 nm | Relative Fluorescence Yield ([1]; in Methanol): 9.5 | Peak Absorbance ([1]; in Platelets): 788 nm | Peak Emission ([1]; in Platelets): 804 nm | Relative Fluorescence Yield ([1]; in Platelets): 1.0 | Peak Absorbance ([1]; in Tyrode's-HEPES): 769 nm | Peak Emission ([1]; in Tyrode's-HEPES): 789 nm | Relative Fluorescence Yield ([1]; in Tyrode's-HEPES): 1.4 | emission maximum ([1]; in aqueous buffer): 788.8 nm | excitation maximum ([1]; in aqueous buffer): 769.3 nm | aggregation in response to thrombin or CRP (washed pig platelets): aggregated normally
